Assay results: ChEMBL document CHEMBL4411300 (Eur J Med Chem, 2019)
Calls of active or inactive are those of the source. No cut-off for these calls is given here.

Legend:
Trypanosoma cruzi [1] = test: Trypanocidal activity against Trypanosoma cruzi MHOM/Pe/2011/Arequipa DTU 5 epimastigotes after 48 to 72 hrs by resazurin dye based assay; type: functional, organism-based
Trypanosoma cruzi [2] = test: Trypanocidal activity against Trypanosoma cruzi MHOM/Pe/2011/Arequipa DTU 5 trypomastigotes derived from infected Balb/c albino mouse after 24 hrs by resazurin dye based assay; type: functional, organism-based; conditions: MHOM/Pe/2011/Arequipa DTU 5, 24 h
Trypanosoma cruzi [3] = test: Trypanocidal activity against Trypanosoma cruzi IRHOD/CO/2008/SN3 DTU 1 epimastigotes after 48 to 72 hrs by resazurin dye based assay; type: functional, organism-based
Trypanosoma cruzi [4] = test: Trypanocidal activity against Trypanosoma cruzi IRHOD/CO/2008/SN3 DTU 1 trypomastigotes derived from infected Balb/c albino mouse after 24 hrs by resazurin dye based assay; type: functional, organism-based; conditions: IRHOD/CO/2008/SN3 DTU 1, 24 h
Trypanosoma cruzi [5] = test: Trypanocidal activity against Trypanosoma cruzi TINF/CH/1956/Tulahuen DTU 6 trypomastigotes derived from infected Balb/c albino mouse after 24 hrs by resazurin dye based assay; type: functional, organism-based; conditions: TINF/CH/1956/Tulahuen DTU 6, 24 h
[6] = Selectivity index, ratio of IC50 for African green monkey Vero cells to IC50 for Trypanosoma cruzi MHOM/Pe/2011/Arequipa DTU 5 amastigotes infected in African green monkey Vero cells; type: toxicity; conditions: read-out: Ratio IC50
[7] = Selectivity index, ratio of IC50 for African green monkey Vero cells to IC50 for Trypanosoma cruzi IRHOD/CO/2008/SN3 DTU 1 amastigotes infected in African green monkey Vero cells; type: toxicity; conditions: read-out: Ratio IC50
[8] = Selectivity index, ratio of IC50 for African green monkey Vero cells to IC50 for Trypanosoma cruzi TINF/CH/1956/Tulahuen DTU 6 amastigotes infected in African green monkey Vero cells; type: toxicity; conditions: read-out: Ratio IC50
Trypanosoma cruzi [9] = test: Trypanocidal activity against Trypanosoma cruzi MHOM/Pe/2011/Arequipa DTU 5 amastigotes infected in African green monkey Vero cells assessed as reduction in number of amastigotes per infected cells at log -0.41 to 1.7 after 72 hrs by Giemsa-staining based assay; type: functional, organism-based
[10] = Toxicity in Balb/c mouse assessed as death at 20 mg/kg, po once daily for 5 consecutive days starting from day 10 post infection; type: organism-based; conditions: in vivo
[11] = Toxicity in Balb/c mouse assessed as reduction in body mass at 20 mg/kg, po once daily for 5 consecutive days starting from day 10 post infection relative to control; type: organism-based; design: scale not given: the % may be the effect or the level left; conditions: in vivo
[12] = Toxicity in Balb/c mouse assessed as reduction in body mass at 20 mg/kg, po once daily for 5 consecutive days starting from day 75 post infection relative to control; type: organism-based; design: scale not given: the % may be the effect or the level left; conditions: in vivo
Trypanosoma cruzi [13] = test: Antitrypanosomal activity against Trypanosoma cruzi MHOM/Pe/2011/Arequipa DTU 5 trypomastigotes infected in Balb/c mouse assessed as reduction in Ig-G level in serum at 20 mg/kg, po once daily for 5 consecutive days starting from day 10 post infection measured on day 100 post infection by ELISA; type: functional, organism-based
Trypanosoma cruzi [14] = test: Antitrypanosomal activity against Trypanosoma cruzi MHOM/Pe/2011/Arequipa DTU 5 trypomastigotes infected in Balb/c mouse assessed as reduction in Ig-G level in serum at 20 mg/kg, po pretreated once daily for 5 consecutive days starting from day 10 post infection followed by cyclophosphamide-induced immunosuppression on day 100 post infection every 4 days for a maximum of 3 doses measured on day 127 post infection by ELISA; type: functional, organism-based
Trypanosoma cruzi [15] = test: Antitrypanosomal activity against Trypanosoma cruzi MHOM/Pe/2011/Arequipa DTU 5 epimastigotes assessed as effect on parasite glycolytic pathway by measuring increase in glycerol excretion at IC25 after 72 hrs by 1H NMR method; type: functional, organism-based
Trypanosoma cruzi [16] = test: Antitrypanosomal activity against Trypanosoma cruzi MHOM/Pe/2011/Arequipa DTU 5 epimastigotes assessed as effect on parasite glycolytic pathway by measuring decrease in succinate excretion at IC25 after 72 hrs by 1H NMR method relative to control; type: functional; design: scale not given: the % may be the effect or the level left
Trypanosoma cruzi [17] = test: Antitrypanosomal activity against Trypanosoma cruzi MHOM/Pe/2011/Arequipa DTU 5 epimastigotes assessed as effect on parasite glycolytic pathway by measuring decrease in acetate excretion at IC25 after 72 hrs by 1H NMR method; type: functional, organism-based
Trypanosoma cruzi [18] = test: Antitrypanosomal activity against Trypanosoma cruzi MHOM/Pe/2011/Arequipa DTU 5 epimastigotes assessed as effect on parasite glycolytic pathway by measuring decrease in L-alanine excretion at IC25 after 72 hrs by 1H NMR method; type: functional, organism-based
Trypanosoma cruzi [19] = test: Antitrypanosomal activity against Trypanosoma cruzi MHOM/Pe/2011/Arequipa DTU 5 epimastigotes assessed as effect on parasite glycolytic pathway by measuring decrease in ethanol excretion at IC25 after 72 hrs by 1H NMR method; type: functional; design: scale not given: the % may be the effect or the level left
[20] = molecular target: Superoxide dismutase [Cu-Zn] (Homo sapiens, UniProt P00441); test: Inhibition of human erythrocyte CuZn-SOD by UV-Visible spectrophotometric method
Superoxide dismutase [Cu-Zn], sequence (P00441 whole entry): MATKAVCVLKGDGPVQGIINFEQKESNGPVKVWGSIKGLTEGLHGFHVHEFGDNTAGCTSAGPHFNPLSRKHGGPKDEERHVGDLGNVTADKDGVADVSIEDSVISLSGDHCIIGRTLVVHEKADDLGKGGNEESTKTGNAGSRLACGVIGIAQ

[21] = Nephrotoxicity in Balb/c mouse infected with Trypanosoma cruzi MHOM/Pe/2011/Arequipa DTU 5 trypomastigotes assessed as change in serum urea level at 20 mg/kg, po once daily for 5 consecutive days starting from day 10 post infection measured on day 127 post infection (reference value: 31 mg/dl); type: toxicity, organism-based; conditions: in vivo
[22] = Nephrotoxicity in Balb/c mouse infected with Trypanosoma cruzi MHOM/Pe/2011/Arequipa DTU 5 trypomastigotes assessed as decrease in serum uric acid level at 20 mg/kg, po once daily for 5 consecutive days starting from day 75 post infection measured on day 127 post infection relative to control; type: toxicity, organism-based; design: scale not given: the % may be the effect or the level left; conditions: in vivo
[23] = Cardiotoxicity in Balb/c mouse infected with Trypanosoma cruzi MHOM/Pe/2011/Arequipa DTU 5 trypomastigotes assessed as decrease in serum LDH level at 20 mg/kg, po once daily for 5 consecutive days starting from day 75 post infection measured on day 127 post infection relative to control; type: toxicity, organism-based; design: scale not given: the % may be the effect or the level left; conditions: in vivo
[24] = (§1) Hepatotoxicity in Balb/c mouse infected with Trypanosoma cruzi MHOM/Pe/2011/Arequipa DTU 5 trypomastigotes assessed as increase in ratio of serum AST to GOT level at 20 mg/kg, po once daily for 5 consecutive days starting from day 10 post infection measured on day 16 post infection relative to control; type: toxicity, organism-based; conditions: in vivo
[25] = (§2) Hepatotoxicity in Balb/c mouse infected with Trypanosoma cruzi MHOM/Pe/2011/Arequipa DTU 5 trypomastigotes assessed as change in ratio of serum ALT to GPT level at 20 mg/kg, po once daily for 5 consecutive days starting from day 10 post infection measured on day 127 post infection by biochemical analysis (reference value: 49 U/L); type: toxicity, organism-based; conditions: in vivo
[26] = as §2, with “75” for “10”, “infection” for “infection by biochemical analysis”, “64” for “49”; type: toxicity, organism-based; conditions: in vivo
[27] = as §2, with “Cardiotoxicity” for “Hepatotoxicity”, “in” for “in ratio of”, “LDH” for “ALT to GPT”, “16” for “127”, “3275” for “49”; type: toxicity, organism-based; conditions: in vivo
[28] = as §1, with “75” for “10”, “127” for “16”; type: toxicity, organism-based; conditions: in vivo
[29] = Hepatotoxicity in Balb/c mouse infected with Trypanosoma cruzi MHOM/Pe/2011/Arequipa DTU 5 trypomastigotes assessed as increase in total bilirubin level at 20 mg/kg, po once daily for 5 consecutive days starting from day 75 post infection measured on day 81 post infection relative to control; type: toxicity, organism-based; conditions: in vivo
[30] = as §2, with “alkaline phosphatase” for “ratio of serum ALT to GPT”, “161” for “49”; type: toxicity, organism-based; conditions: in vivo

Row | Compound | IC50 (Trypanosoma cruzi [1]) | IC50 (Trypanosoma cruzi [2]) | IC50 (Trypanosoma cruzi [3]) | IC50 (Trypanosoma cruzi [4]) | IC50 (Trypanosoma cruzi [5]) | selectivity ratio [6] | selectivity ratio [7] | selectivity ratio [8] | Activity (Trypanosoma cruzi [9]) | Activity [10] | Activity [11] | Activity [12] | Activity (Trypanosoma cruzi [13]) | Activity (Trypanosoma cruzi [14]) | Activity (Trypanosoma cruzi [15]) | Activity (Trypanosoma cruzi [16]) | Activity (Trypanosoma cruzi [17]) | Activity (Trypanosoma cruzi [18]) | Activity (Trypanosoma cruzi [19]) | IC50 [20] | further results
1 | Cl.Cl.Cl.NCCN(CCN)CCNCc1ccc2c(c1)Cc1ccccc1-2 | 26.6 µM | 14.7 µM | 19.3 µM | 12.4 µM | 17.6 µM | 365 | 89.6 | 117 | Active | Non-Toxic | < 10% | < 10% | Active | Active | Active | 34% | Active | Active | 31% | > 100 µM | Activity [21]: 34 mg/dL; Activity [22]: <= 10%; Activity [23]: <= 10%; Activity [24]: > 40%; Activity [25]: 49 U/L; Activity [26]: 64 U/L
2 | Cl.Cl.Cl.Cl.Cl.Cl.c1ccc2nc(CNCCN(CCNCc3ccc4ccccc4n3)CCNCc3ccc4ccccc4n3)ccc2c1 | 15.1 µM | 1.2 µM | 14 µM | 1.1 µM | 1.9 µM | 692 | 1020 | 707 | Active | Non-Toxic | < 10% | < 10% | inactive | inactive | Active | 49% | Active | Active | 38% | > 100 µM | Activity [21]: 34 mg/dL; Activity [27]: 3275 U/L; Activity [28]: <= 10%; Activity [29]: <= 30%; Activity [30]: 161 U/L
3 | O=C(Cn1ccnc1[N+](=O)[O-])NCc1ccccc1 [BENZNIDAZOLE] | – | – | – | – | – | – | – | – | – | – | – | – | – | – | – | – | – | – | – | – | Activity [22]: <= 10%; Activity [27]: 3275 U/L; Activity [23]: <= 10%; Activity [24]: > 40%; Activity [28]: <= 10%; Activity [25]: 49 U/L; Activity [26]: 64 U/L; Activity [29]: <= 30%; Activity [30]: 161 U/L
